Assay results: PMC8677766 (Nature Communications, 2021)

Target: T1, hRpn13 (Homo sapiens, UniProt Q16186)
T1 construct: gene ADRM1; hRpn13 Pru (1–150)
Assay: ITC; NMR structure; 2D NMR; LC-MS adduct; tryptophan quenching
Type: binding

T1 sequence (Q16186 1-150): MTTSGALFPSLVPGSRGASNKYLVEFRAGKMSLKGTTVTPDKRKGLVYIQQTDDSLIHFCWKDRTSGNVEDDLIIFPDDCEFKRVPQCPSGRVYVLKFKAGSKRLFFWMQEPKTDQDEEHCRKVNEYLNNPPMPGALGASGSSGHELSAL

Kd: 1480 ± 520 nM
Compound: Cc1ccc(C(=O)Nc2cccc(/C=C(\C#N)C(=O)Nc3ccccc3C(=O)O)c2)cc1 [XL5]
